Results on four compounds are retold here after patent US8426340B2, “Plant growth enhancement with combinations of PESA and plant growth regulators” (Valent BioSciences Corporation, priority 2009, dated 2013).

What all share (format): in vivo
One assay relates to rice cv. Cheniere. The experiment in a line: Pouch assay, root length of rice seedlings. The conditions noted are these: for effect on root length of rice seedlings / effect on main root length of rice cv. Cheniere: pouch solution; for effect on main root length of rice cv. Cheniere: combination: 3, 10, or 30 mg/liter PESA with 1 or 10 mg/liter trinexapac-ethyl. As to the method: (§1) Seeds were placed in germination pouches consisting of germination paper hydrated with sterile water that was an insert in a gas-permeable 16×14 cm plastic pouch (CYG Pouch; Mega International, St. Paul, Minn.). In these examples, in pouch solution evaluation, PESA sodium salt or other active ingredients were added to the sterile water in the pouch. The pouches were arranged in a completely randomized block design in growth racks and placed in 19-liter polycarbonate food storage containers (Rubbermaid Commercial Products, Winchester, Va.). The sealed containers were held in an upright growth cabinet maintained at 25° C. with a 12 hour light: 12 hour dark photoperiod. When Abscisic acid was assayed in pouch studies, the pouches were first filled with sterile water to promote germination. The sterile water solutions were replaced after germination (4 days) and replaced with solutions containing ABA. After 6 days, the containers were removed from the growth cabinet, and the lengths of the roots and shoot were measured.
In pouch solution evaluation, treatment with the gibberellin biosynthesis inhibitor trinexapac-ethyl on […].

Assay [1] concerns lettuce. The experiment in a line: Lettuce seed treatment, germination under thermodormancy conditions. The conditions noted are these: 33° C. and continuous light. As to the method: (§2) Seed was sieved with a screen of mesh size appropriate to remove broken seeds and small trash. Cracked or otherwise damaged seeds were removed. The seed was well mixed, and 50 g samples were weighed into small plastic trays. Seed treatment slurries were made by adding measured amounts of PESA or its salts and other AIs to sufficient water to bring them up to a standard volume, typically 2 ml. A fungicide (Maxim XL; Syngenta Agricultural Products, Greensboro, N.C.), a polymeric binder (CF-Clear; Becker-Underwood, Ames, Iowa), and a colorant (Color Coat Red; Becker-Underwood, Ames, Iowa) were also included in the slurry at label rates. A small aliquot of this slurry was applied to the seed using a Hege 11 coater (Wintersteiger, Salt Lake City, Utah) with a six-inch bowl at a slurry rate of 30 ounces per 100 lbs of seed. The slurry was deposited drop-wise on the spinning disk atomizer using a syringe.
(§3) After treatment, each seed sample was placed in plastic trays and dried at a room temperature for 20 to 60 minutes. The samples were then placed in small plastic bags. […]
To test the effect of chemical application on thermodormancy, lettuce seed was treated with PESA salt (50 g/cwt), 6BA (1 g/cwt), or a combination of PESA salt and 6BA. Lettuce seed was then grown under conditions that promote thermodormancy (33° C. and continuous light) and final seedling germination was determined (Table 1).

In assay [2] the test system is lettuce. The experiment in a line: Lettuce seed treatment, root growth. The conditions noted are these: 25° C. in darkness, 3 days. As to the method: as §2, §3
To test the effect of chemical application on root growth, lettuce seed was treated with PESA salt (50 g/cwt), 6BA (1 g/cwt), or a combination of PESA salt and 6BA. Treated lettuce seed was grown at 25° C. in darkness, and root lengths were determined after 3 days.

Assay [3] concerns cotton. The experiment in a line: Pouch assay, root length of cotton seedlings (6BA). The conditions noted are these: for root length (cm) of cotton: 6BA 0 mg/liter. As to the method: as §1
Assay [4] concerns cotton. The assay is described as follows: Pouch assay, root length of cotton seedlings (ABA). As for the experimental part: as §1
The mark [5] stands for this setting: ACC alone 1, 10, or 100 mg/liter, combination: 3, 10, or 30 mg/liter PESA with 1, 10, or 100 mg/liter ACC, except 10 mg/liter PESA with 1 mg/liter ACC.
The mark [6] stands for this setting: PESA salt 50 g/cwt, 6BA 1 g/cwt, alone or in combination.
[7] abbreviates: seed treatment 50 g/cwt PESA salt, 0 g/cwt 6BA.

Counter-ions that a name gives are not always drawn.

As to `NC1(C(=O)O)CC1` [ACC, 1-aminocyclopropane carboxylic acid, reference compound], the “root length (cm) of rice cv. Cheniere” value worked out at 8.8 cm with rice cv. Cheniere (Table 4, PESA salt 0 mg/liter, ACC 1 mg/liter); 7.8 cm with rice cv. Cheniere (Table 4, PESA salt 0 mg/liter, ACC 10 mg/liter); 4.3 cm with rice cv. Cheniere (Table 4, PESA salt 0 mg/liter, ACC 100 mg/liter). Besides, the “effect on root length of rice seedlings” value in the assay on rice cv. Cheniere (setting [5]) is “reduced root length”.

Consider `O=C(O)CCC(=O)NCCc1ccccc1` [PESA salt, N-(2-phenylethyl)succinamic acid], for which the “effect on lettuce germination” value with lettuce [1] (setting [6]) is reported as “no effect”. Moreover, the “Germination (%)” value in the assay on lettuce [1] (setting [7]) turned out to be 14.9%. Further, in the assay with lettuce [2] (setting [6]), the “effect on lettuce root growth” value was “no effect on lettuce root growth”. For the same compound, the “Root length (cm)” value in the assay on lettuce [2] (setting [7]) amounted to 3.8 cm. Also, the “root length (cm) of cotton” value in the assay on cotton [3] (PESA salt 3 mg/liter) amounted to 9.8 cm; in the assay on cotton [3] (PESA salt 10 mg/liter) it was 11.9 cm; in the assay with cotton [3] (PESA salt 30 mg/liter) it was 13.0 cm; in the assay with cotton [4] (PESA salt 3 mg/liter, ABA 0 mg/liter), 11.9 cm; with cotton [4] (PESA salt 10 mg/liter, ABA 0 mg/liter), 11.1 cm. Moreover, the “effect on main root length of cotton seedlings” value in the assay on cotton [3] (pouch solution, combination: 10 or 30 mg/liter PESA with 1 or 10 mg/liter 6BA) is on record as “increased root length in a dose-dependent manner”. In addition, the “root length (cm) of rice cv. Cheniere” value in the assay with rice cv. Cheniere (Table 3, PESA salt 3 mg/liter, trinexapac-ethyl 0 mg/liter) stood at 12.1 cm; with rice cv. Cheniere (Table 3, PESA salt 10 mg/liter, trinexapac-ethyl 0 mg/liter) it was 12.5 cm; with rice cv. Cheniere (Table 3, PESA salt 30 mg/liter, trinexapac-ethyl 0 mg/liter), 13.1 cm; in the assay with rice cv. Cheniere (Table 4, PESA salt 3 mg/liter, ACC 0 mg/liter), 9.7 cm; with rice cv. Cheniere (Table 4, PESA salt 10 mg/liter, ACC 0 mg/liter) it was 9.8 cm; in the assay with rice cv. Cheniere (Table 4, PESA salt 30 mg/liter, ACC 0 mg/liter) it was 9.4 cm. Further, the “root length (cm) of rice cv. Cheniere” value is 11.4 cm with rice cv. Cheniere (Table 5, PESA salt 3 mg/liter, AVG 0 mg/liter) and 12.3 cm in the assay with rice cv. Cheniere (Table 5, PESA salt 30 mg/liter, AVG 0 mg/liter). The “effect on root length of rice seedlings” value in the assay with rice cv. Cheniere (setting [5]) and in the assay on rice cv. Cheniere (PESA salt alone (AVG experiment)) was “increased root length” each time. Further, in the assay with rice cv. Cheniere, the “effect on main root length of rice cv. Cheniere” value was “increased root length in a dose-dependent manner”.

In the case of `CC1=CC(=O)CC(C)(C)[C@@]1(O)/C=C/C(C)=C\C(=O)O` [ABA, abscisic acid], the “root length (cm) of cotton” value with cotton [4] (PESA salt 0 mg/liter, ABA 1 mg/liter) is 10.4 cm; in the assay on cotton [4] (PESA salt 0 mg/liter, ABA 10 mg/liter) it was 10.0 cm. Moreover, in the assay with cotton [4] (pouch solution, combination: PESA 3 or 10 mg/liter with ABA), the “effect on root growth of cotton seedlings” value was “inhibited root growth”.

As to `CCOC(=O)C1CC(=O)C(=C(O)C2CC2)C(=O)C1` (centres unmarked) [trinexapac-ethyl, reference compound], the “root length (cm) of rice cv. Cheniere” value amounted to 10.9 cm with rice cv. Cheniere (Table 3, PESA salt 0 mg/liter, trinexapac-ethyl 1 mg/liter); 9.9 cm in the assay with rice cv. Cheniere (Table 3, PESA salt 0 mg/liter, trinexapac-ethyl 10 mg/liter); 5.0 cm in the assay on rice cv. Cheniere (Table 3, PESA salt 0 mg/liter, trinexapac-ethyl 100 mg/liter). The “effect on main root length of rice cv. Cheniere” value with rice cv. Cheniere is “negative effect on main root length”.
